From the CheMixHub ionic liquid set
± gives the uncertainty stated by the source.

Experiment: xn = mol fraction of the nth substance listed
Conditions: 100 kPa

CCC(=O)[O-].CCOCCn1cc[n+](C)c1 + O
Conditions	electrical conductivity [S/m]	viscosity [mPa·s]
288.15 K, x1 = 0.8211	0.244 ± 0.02	56.95 ± 0.62
288.15 K, x1 = 0.85	0.209 ± 0.02	62.86 ± 0.75
288.15 K, x1 = 0.8812	0.178 ± 0.02	69.98 ± 0.97
288.15 K, x1 = 0.9123	0.148 ± 0.02	77.3 ± 1.3
288.15 K, x1 = 0.9441	0.118 ± 0.02	85.4 ± 1.6
288.15 K, x1 = 1	0.067 ± 0.02	96.2 ± 2.1
293.15 K, x1 = 0.8211	0.285 ± 0.02	43.77 ± 0.57
293.15 K, x1 = 0.85	0.255 ± 0.02	48.37 ± 0.63
293.15 K, x1 = 0.8812	0.228 ± 0.02	53.31 ± 0.56
293.15 K, x1 = 0.9123	0.202 ± 0.02	58.97 ± 0.66
293.15 K, x1 = 0.9441	0.177 ± 0.02	64.74 ± 0.77
293.15 K, x1 = 1	0.132 ± 0.02	72.77 ± 0.96
298.15 K, x1 = 0.8211	0.332 ± 0.02	34.4 ± 0.51
298.15 K, x1 = 0.85	0.305 ± 0.02	37.68 ± 0.54
298.15 K, x1 = 0.8812	0.28 ± 0.02	41.51 ± 0.57
298.15 K, x1 = 0.9123	0.258 ± 0.02	45.4 ± 0.6
298.15 K, x1 = 0.9441	0.236 ± 0.02	49.8 ± 0.61
298.15 K, x1 = 1	0.196 ± 0.02	55.65 ± 0.48
303.15 K, x1 = 0.8211	0.425 ± 0.02	27.21 ± 0.47
303.15 K, x1 = 0.85	0.399 ± 0.02	29.76 ± 0.49
303.15 K, x1 = 0.8812	0.371 ± 0.02	32.63 ± 0.51
303.15 K, x1 = 0.9123	0.349 ± 0.02	35.7 ± 0.53
303.15 K, x1 = 0.9441	0.326 ± 0.02	39.01 ± 0.54
303.15 K, x1 = 1	0.285 ± 0.02	43.51 ± 0.52
308.15 K, x1 = 0.8211	0.539 ± 0.02	22.04 ± 0.45
308.15 K, x1 = 0.85	0.507 ± 0.02	23.97 ± 0.46
308.15 K, x1 = 0.8812	0.478 ± 0.02	26.44 ± 0.47
308.15 K, x1 = 0.9123	0.451 ± 0.02	28.78 ± 0.48
308.15 K, x1 = 0.9441	0.425 ± 0.02	30.96 ± 0.49
308.15 K, x1 = 1	0.378 ± 0.02	34.6 ± 0.48
313.15 K, x1 = 0.8211	0.647 ± 0.02	17.65 ± 0.43
313.15 K, x1 = 0.85	0.617 ± 0.02	19.48 ± 0.44
313.15 K, x1 = 0.8812	0.588 ± 0.02	21.34 ± 0.45
313.15 K, x1 = 0.9123	0.561 ± 0.02	22.96 ± 0.45
313.15 K, x1 = 0.9441	0.534 ± 0.02	24.58 ± 0.46
313.15 K, x1 = 1	0.488 ± 0.02	27.45 ± 0.45
318.15 K, x1 = 0.8211	0.775 ± 0.02	14.34 ± 0.42
318.15 K, x1 = 0.85	0.747 ± 0.02	15.58 ± 0.43
318.15 K, x1 = 0.8812	0.718 ± 0.02	17.15 ± 0.43
318.15 K, x1 = 0.9123	0.691 ± 0.02	18.49 ± 0.43
318.15 K, x1 = 0.9441	0.664 ± 0.02	19.86 ± 0.44
318.15 K, x1 = 1	0.619 ± 0.02	22.11 ± 0.44
